# Data published in EPA's ToxValDB 9.5 (doi:10.2903/j.efsa.2008.126r).
# Columns and labels:
# Daphnia magna = settings: chronic/long-term; duration: 21 days; reproduction
# Anas platyrhynchos = settings: for LD50: oral, mortality
# Apis mellifera = settings: acute; duration: 48 hours; dermal; mortality
# Colinus virginianus = settings: for LD50: acute, oral, mortality
# Canidae = settings: subchronic; duration: 90 days; oral; Dog Other; histopathology: nonneoplastic
structure (smiles),measurement,setting,value
CC(C)Oc1cccc(NC(=O)c2ccccc2C(F)(F)F)c1 [Flutolanil],NOEC,Daphnia magna,0.53 mg/L
same,LC50,"Pimephales promelas; acute, duration: 96 hours, mortality",4.8 µg/mL
same,NOEC,"Pimephales promelas; chronic/long-term, duration: 30 days, growth",0.233 mg/L
same,LD50,"Anas platyrhynchos; acute, unspecified",> 2000 mg/kg-day
same,NOEL,Anas platyrhynchos; reproductive,267 mg/kg-day
same,LD50,"Anas platyrhynchos; short-term, feed",1250 mg/kg-day
same,LD50,Apis mellifera,> 200 µg/piece
same,LD50,"Rattus norvegicus; acute, oral, mortality",> 10000 mg/kg-day
same,NOAEL,"Rattus norvegicus; chronic, duration: 2 years, F, hematological",8.7 mg/kg-day
same,NOAEL,"Rattus norvegicus; chronic, duration: 2 years, M, histopathology: nonneoplastic",8.7 mg/kg-day
same,NOAEL,"Rattus norvegicus; reproduction developmental, organ weight",157 mg/kg-day
same,LC50,"Tagia sp.; acute, duration: 14 days, mortality",> 1000 mg/kg
same,NOEC,"Tagia sp.; chronic/long-term, duration: 56 days",12.9 mg/kg
same,LD50,Colinus virginianus; diet,> 961 mg/kg-day
same,LD50,Colinus virginianus,> 2000 mg/kg-day
same,NOEL,Colinus virginianus; reproduction developmental,247 mg/kg-day
same,NOAEL,Canidae,80 mg/kg-day
